Experimental data reported in patent US20240101570A1 (AMGEN INC., priority 2020, published 2024).

What was measured:
HCT116 MTAP null cells = assay: HCT116 MTAP null cell proliferation / viability (CellTiter-Glo, 6 days); format: cell-based; details: HCT116-MTAP null, 144 h, HCT116 MTAP null cells, 6 days, CellTiter-Glo; read-out: HCT-116 MTAP null IC50
Procedure, shortened: (§1)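 IC50 values derive from sigmoidal dose-response fits, some with Hill slope fixed at −1 and top constrained to 100%, others from 4-parameter logistic models. They reflect CellTiter-Glo viability after 6 days of compound exposure at up to 10 or 50 μM.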

HCT116 WT cells = assay: HCT116 WT cell proliferation / viability (CellTiter-Glo, 6 days); format: cell-based; details: Homo sapiens, HCT-116, 144 h, HCT116 WT cells, 6 days, CellTiter-Glo; read-out: HCT-116 WT IC50
Procedure, shortened: as §1

SMILES: CC(C)N(Cc1ccc(C2CC2)nc1)C(=O)c1cc2c3c(c(N)nc2cn1)[C@H](C)OC3 [Example 403, (3S)-4-amino-N-((6-cyclopropyl-3-pyridinyl)methyl)-3-methyl-N-(2-propanyl)-1,3-dihydrofuro[3,4-c][1,7]naphthyridine-8-carboxamide]
- IC50 (HCT116 MTAP null cells): ≥ 10000 nM
- IC50 (HCT116 WT cells): > 10000 nM

SMILES: COc1cc2nc(N)c3c(c2cc1C(=O)N(C)Cc1ccc(C(F)(F)F)cn1)COC3 [Example 502, 4-amino-7-methoxy-N-methyl-N-((5-(trifluoromethyl)-2-pyridinyl)methyl)-1,3-dihydrofuro[3,4-c]quinoline-8-carboxamide]
- IC50 (HCT116 MTAP null cells): 3930 nM
- IC50 (HCT116 WT cells): 47300 nM

SMILES: CCOc1ccc(CN(C(=O)c2cc3c4c(c(N)nc3cn2)[C@@H](C)OC4)C23CC(C2)C3)nn1 [Example 409, (3R)-4-amino-N-(bicyclo[1.1.1]pentan-1-yl)-N-((6-ethoxy-3-pyridazinyl)methyl)-3-methyl-1,3-dihydrofuro[3,4-c][1,7]naphthyridine-8-carboxamide]
- IC50 (HCT116 MTAP null cells): 56 nM
- IC50 (HCT116 WT cells): 5870 nM

SMILES: CC(C)N(Cc1ccc(C(F)(F)F)cn1)C(=O)c1cc2c3c(c(N)nc2cn1)[C@@H](C)OC3 [Example 310, (3R)-4-amino-3-methyl-N-(2-propanyl)-N-((5-(trifluoromethyl)-2-pyridinyl)methyl)-1,3-dihydrofuro[3,4-c][1,7]naphthyridine-8-carboxamide]
- IC50 (HCT116 MTAP null cells): 71 nM
- IC50 (HCT116 WT cells): 4050 nM

SMILES: CC1OCc2c1c(N)nc1ccc(C(=O)N(Cc3ccc(C(F)(F)F)cn3)[C@H](C)c3ncccn3)cc21 (stereo partly drawn) [Example 911, 4-amino-3-methyl-N-((R)-1-(pyrimidin-2-yl)ethyl)-N-((5-(trifluoromethyl)pyridin-2-yl)methyl)-1,3-dihydrofuro[3,4-c]quinoline-8-carboxamide]
- IC50 (HCT116 MTAP null cells): 21 nM
- IC50 (HCT116 WT cells): 173 nM

SMILES: N#CC[C@H](C1CC1)N(Cc1ccc(C#N)cn1)C(=O)c1ccc2nc(N)c3c(c2c1)COC3 (single isomer, unassigned) [Example 581]
- IC50 (HCT116 MTAP null cells): 809 nM
- IC50 (HCT116 WT cells): 10200 nM

SMILES: C[C@H]1OCc2c1c(N)nc1ccc(C(=O)N(Cc3ccc(C(F)(F)F)nn3)CC3CC3)cc21 [Example 333, (3R)-4-amino-N-(cyclopropylmethyl)-3-methyl-N-((6-(trifluoromethyl)-3-pyridazinyl)methyl)-1,3-dihydrofuro[3,4-c]quinoline-8-carboxamide]
- IC50 (HCT116 MTAP null cells): 24 nM
- IC50 (HCT116 WT cells): 1410 nM

SMILES: Cn1cc(N(Cc2ccc(C(F)(F)F)cn2)C(=O)c2cnc3nc(N)c4c(c3c2)COC4)cn1 [Example 886, 4-amino-N-(1-methyl-1H-pyrazol-4-yl)-N-((5-(trifluoromethyl)-2-pyridinyl)methyl)-1,3-dihydrofuro[3,4-c][1,8]naphthyridine-8-carboxamide]
- IC50 (HCT116 MTAP null cells): 1690 nM
- IC50 (HCT116 WT cells): > 10000 nM

SMILES: CC(C)CN(Cc1ccc(C(F)(F)F)cn1)C(=O)c1ccc2nc(N)c3c(c2c1)CO[C@@H]3CO (single isomer, unassigned) [Example 580]
- IC50 (HCT116 MTAP null cells): 321 nM
- IC50 (HCT116 WT cells): 10800 nM

SMILES: CN(Cc1ccc(C(F)(F)F)cc1)C(=O)c1cc2c(cn1)nc(N)c1cnn(C)c12 [Example 544, 4-amino-N,1-dimethyl-N-(4-(trifluoromethyl)benzyl)-1H-pyrazolo[4,3-c][1,7]naphthyridine-8-carboxamide]
- IC50 (HCT116 MTAP null cells): 56 nM
- IC50 (HCT116 WT cells): 2320 nM

SMILES: CCN(Cc1ccc(C2CC2)cn1)C(=O)c1cc2c(cc1F)nc(N)c1cnn(C)c12 [Example 545, 4-amino-N-((5-cyclopropyl-2-pyridinyl)methyl)-N-ethyl-7-fluoro-1-methyl-1H-pyrazolo[4,3-c]quinoline-8-carboxamide]
- IC50 (HCT116 MTAP null cells): 7 nM
- IC50 (HCT116 WT cells): 140 nM

SMILES: CC[C@H](c1cncnc1)N(Cc1ccc(S(F)(F)(F)(F)F)cc1)C(=O)c1cc2c(cn1)nc(N)c1cnn(C)c12 (single isomer, unassigned) [Example 871]
- IC50 (HCT116 MTAP null cells): 25 nM
- IC50 (HCT116 WT cells): 78 nM

SMILES: C[C@H](c1ccc(C(F)(F)F)cn1)N(C(=O)c1cc2c3c(c(N)nc2cn1)COC3)c1cnn(C)c1 (single isomer, unassigned) [Example 825]
- IC50 (HCT116 MTAP null cells): 22 nM
- IC50 (HCT116 WT cells): 276 nM
